From patent US11795189B2, “Formulation and method for spray-drying D-tagatose” (University of Kentucky Research Foundation, priority 2020, dated 2023)

Columns and labels:
[1] = oral ingestion; cited from earlier work
[2] = D-tagatose dissolved in tri-solvent systems; assay type: physicochemical
Excerpt: Tri-solvent systems may also be used. One example of a tri-solvent system is ethanol, methanol and water.
Table 2: Summarizes tri-solvent systems that have shown to dissolve D-tagatose.

[3] = granted 2004; such low toxicity that no daily intake monitoring is needed; cited from earlier work
[4] = crystalline D-tagatose, at 20° C.; cited from earlier work
[5] = tested on: type 2 diabetes; details: cited from earlier work
[6] = Glass transition temperature (Tg) by DSC; assay type: physicochemical
Description: Glass transition temperatures were determined using DSC for physical mixtures of D-tagatose and respective excipients subjected to melt quenching. Samples were prepared by geometrically mixing D-tagatose and excipients at a 1:1 (w/w) ratio. Once mixed, the samples were then rigorously ground using a mortar and pestle before being hermetically sealed within a T-Zero pan. Once sealed, the samples were transferred to a Q2000 DSC (TA Instruments, New Castle, DE). All samples were run with the DSC operating in the modulation mode with a “pinhole” lid to better capture the sample's behavior instead of any residual vapors. The modulating method was first equilibrated at −20° C. before heating at 10° C./min to 140° C. […] Once −10° C. was reached, samples were set to modulate at ±0.5° C. every 60 s immediately and held for 5 min before ramping 1° C./min back to 140° C. Reported Tg values were averages of triplicate samples, each determined from the midpoint of the glass transition step change from the resultant reversible heat flow curves vs. temperature thermograms. All DSC mass samples were between 1 and 5 mg.

[7] = D-tagatose fully dissolved in water:organic dual solvent systems; assay type: physicochemical
Excerpt: The solvent used in the spray-drying feed formulation may be substantially any solvent suitable for the intended purpose including, for example, an appropriate co-solvent system. That co-solvent system may include acetone and water. The acetone and water may be provided at a ratio of between 1:1 and 4.6:1 (v/v %). In other embodiments, the co-solvent system may include methanol and water, propanol and water or ethanol and water.

In the case of `O=C(CO)[C@@H](O)[C@@H](O)[C@H](O)CO` [D-tagatose, D-(−)-tagatose], the “fraction of orally ingested dose fully metabolized” value [1] is given as 20%, the “amount of D-tagatose dissolved” value ([2]; 2-Propanol:Acetone:Water 1 mL:5 mL:3.8 mL, sonicate while adding water) is given as about 1 gram and the “amount of D-tagatose dissolved” value ([2]; 2-Propanol:Acetone:Water 5 mL:1 mL:3.6 mL, sonicate while adding water) is given as about 1 gram. The “amount of D-tagatose dissolved” value ([2]; 2-Propanol:Ethanol:Water 1 mL:5 mL:4.2 mL, sonicate while adding water) was about 1 gram, the “amount of D-tagatose dissolved” value ([2]; 2-Propanol:Ethanol:Water 5 mL:1 mL:4.6 mL, sonicate while adding water) was about 1 gram and the “w % Tagatose (dissolved)” value ([2]; Ethanol 1 mL + 5 mL methanol + water, 37.324 w % water, 51.789 w % organic) was 10.887 w %. The “w % Tagatose (dissolved)” value ([2]; Ethanol 2 mL + 5 mL methanol + water, 36.185 w % water, 53.816 w % organic) was 9.999 w %, the “w % Tagatose (dissolved)” value ([2]; Ethanol 3 mL + 5 mL methanol + water, 32.436 w % water, 58.272 w % organic) was 9.292 w % and the “w % Tagatose (dissolved)” value ([2]; Methanol 1 mL + 5 mL ethanol + water, 39.808 w % water, 49.3620231 w % organic) was 10.830 w %. The “w % Tagatose (dissolved)” value ([2]; Methanol 2 mL + 5 mL ethanol + water, 37.459 w % water, 52.8123019 w % organic) was 9.729 w %, the “w % Tagatose (dissolved)” value ([2]; Methanol 3 mL + 5 mL ethanol + water, 35.506 w % water, 55.7893055 w % organic) was 8.704 w % and the “amount of D-tagatose dissolved” value ([2]; Methanol:Ethanol:Water 5 mL:1 mL:3.4 mL) was about 1 gram. The safe daily intake [3] was “not specified”, the aqueous solubility [4] was 160 g/100 mL and the “effect on HbA1c” value [5] was “lower”. The “effect on LDL” value [5] was “lower”, the “effect on fasting blood glucose levels” value [5] was “lower” and the “effect on total cholesterol” value [5] was “lower”. The “dry Tg (glass transition temperature)” value [6] was 18.92 °C, the “amount of D-tagatose dissolved” value ([7]; 2-Propanol:Water 5 mL:3.6 mL) was about 1 gram and the “w % Tagatose (fully dissolved)” value ([7]; 2-Propanol:water, 45.6 w % water, 43.3 w % organic) was 11.1 w %. For the same compound, the “amount of D-tagatose dissolved” value ([7]; Acetone:Water 5 mL:4.1 mL) was about 1 gram, the “w % Tagatose (fully dissolved)” value ([7]; Acetone:water, 46.0 w % water, 42.7 w % organic) was 11.3 w % and the “amount of D-tagatose dissolved” value ([7]; Ethanol:Water 5 mL:4.2 mL) was about 1 gram. For the same compound, the “w % Tagatose (fully dissolved)” value ([7]; Ethanol:water, 45.9 w % water, 42.5 w % organic) was 11.6 w %, the “amount of D-tagatose dissolved” value ([7]; Methanol:Water 5 mL:3.1 mL) was about 1 gram and the “w % Tagatose (fully dissolved)” value ([7]; Methanol:water, 46.0 w % water, 42.7 w % organic) was 11.2 w %.
